Data as given in ChEMBL document CHEMBL4428097, “Gallic acid induces apoptosis in EGFR-mutant non-small cell lung cancers by accelerating EGFR turnover” (Bioorg Med Chem Lett, 2016).
Calls of active or inactive are those of the source. The rule behind the calls is not given here.

Assays:
NCI-H1650 [1] = test: Inhibition of EGFR mutant-mediated AKT phosphorylation in human NCI-H1650 cells harboring EGFR-mutant at 30 and 60 uM measured after 24 hrs by immunoblotting analysis; format: cell-based
NCI-H1975 [2] = test: Antiproliferative activity against human NCI-H1975 cells harboring EGFR-mutant assessed as cell viability measured after 24 hrs; format: functional, cell-based
NCI-H1650 [3] = test: Antiproliferative activity against human NCI-H1650 cells harboring EGFR-mutant assessed as cell viability measured after 24 hrs; format: functional, cell-based
A549 [4] = test: Antiproliferative activity against human A549 cells harboring wild-type EGFR assessed as cell viability at 30 and 60 uM measured after 24 hrs; format: functional, cell-based
NCI-H460 [5] = test: Antiproliferative activity against human NCI-H460 cells harboring wild-type EGFR assessed as cell viability at 30 and 60 uM measured after 24 hrs; format: functional, cell-based
NCI-H1975 [6] = test: Induction of apoptosis in human NCI-H1975 harboring EGFR-mutant cells assessed as cell death measured after 24 hrs by Annexin-V/PI staining based analysis; format: functional
NCI-H1650 [7] = test: Induction of apoptosis in human NCI-H1650 cells harboring EGFR-mutant assessed as cell death measured after 24 hrs by Annexin-V/PI staining based analysis; format: functional
A549 [8] = test: Induction of apoptosis in human A549 cells harboring wild-type EGFR assessed as cell death at 30 and 60 uM measured after 24 hrs by Annexin-V/PI staining based analysis; format: functional
NCI-H460 [9] = test: Induction of apoptosis in human NCI-H460 cells harboring wild-type EGFR assessed as cell death at 30 and 60 uM measured after 24 hrs by Annexin-V/PI staining based analysis; format: functional
NCI-H1975 [10] = test: Increase in cleaved caspase3 level in human NCI-H1975 cells harboring EGFR-mutant at 30 and 60 uM by immunoblotting analysis; format: functional, cell-based
NCI-H1650 [11] = test: Increase in cleaved caspase3 level in human NCI-H1650 cells harboring EGFR-mutant at 30 and 60 uM by immunoblotting analysis; format: functional, cell-based
A549 [12] = test: Increase in cleaved caspase3 level in human A549 cells harboring wild-type EGFR at 30 and 60 uM by immunoblotting analysis; format: functional, cell-based
NCI-H460 [13] = test: Increase in cleaved caspase3 level in human NCI-H460 cells harboring wild-type EGFR at 30 and 60 uM by immunoblotting analysis; format: functional, cell-based
NCI-H1975 [14] = test: Increase in PARP level in human NCI-H1975 cells harboring EGFR-mutant at 30 and 60 uM by immunoblotting analysis; format: functional, cell-based
NCI-H1650 [15] = test: Increase in PARP level in human NCI-H1650 cells harboring EGFR-mutant at 30 and 60 uM by immunoblotting analysis; format: functional, cell-based
A549 [16] = test: Increase in PARP level in human A549 cells harboring wild-type EGFR at 30 and 60 uM by immunoblotting analysis; format: functional, cell-based
NCI-H460 [17] = test: Increase in PARP level in human NCI-H460 cells harboring wild-type EGFR at 30 and 60 uM by immunoblotting analysis; format: functional, cell-based
NCI-H1975 [18] = test: Effect on ROS level in human NCI-H1975 cells harboring EGFR-mutant at 60 uM; format: functional, cell-based
NCI-H1650 [19] = test: Effect on ROS level in human NCI-H1650 cells harboring EGFR-mutant at 60 uM; format: functional, cell-based
NCI-H1975 [20] = test: Induction of apoptosis in human NCI-H1975 cells harboring EGFR-mutant assessed as cell death at 60 uM in presence of NAC; format: functional, cell-based
NCI-H1650 [21] = test: Induction of apoptosis in human NCI-H1650 cells harboring EGFR-mutant assessed as cell death at 60 uM in presence of NAC; format: functional, cell-based
NCI-H1975 [22] = test: Decrease in EGFR level in human NCI-H1975 cells harboring EGFR-mutant measured after 24 hrs by immunoblotting analysis; format: functional, cell-based
NCI-H1975 [23] = test: Inhibition of EGFR mutant-mediated AKT phosphorylation in human NCI-H1975 cells harboring EGFR-mutant at 30 and 60 uM measured after 24 hrs by immunoblotting analysis; format: cell-based
NCI-H1975 [24] = test: Inhibition of EGFR mutant-mediated ERK phosphorylation in human NCI-H1975 cells harboring EGFR-mutant at 30 and 60 uM measured after 24 hrs by immunoblotting analysis; format: cell-based
NCI-H1650 [25] = test: Decrease in EGFR level in human NCI-H1650 cells harboring EGFR-mutant at 30 and 60 uM by […]; format: functional, cell-based
NCI-H1650 [26] = test: Inhibition of EGFR mutant-mediated ERK phosphorylation in human NCI-H1650 cells harboring EGFR-mutant measured after 24 hrs by immunoblotting analysis; format: cell-based
A549 [27] = test: Decrease in EGFR level in human A549 cells harboring wild-type EGFR at 30 and 60 uM measured after 24 hrs by immunoblotting analysis; format: functional, cell-based
[28] = target: Epidermal growth factor receptor (Homo sapiens) (UniProt P00533); test: Inhibition of EGFR-mediated AKT phosphorylation in human A549 cells harboring wild-type EGFR at 30 and 60 uM measured after 24 hrs by immunoblotting analysis; format: cell-based
[29] = target: Epidermal growth factor receptor (Homo sapiens) (UniProt P00533); test: Inhibition of EGFR-mediated ERK phosphorylation in human A549 cells harboring wild-type EGFR at 30 and 60 uM measured after 24 hrs by immunoblotting analysis; format: cell-based
NCI-H460 [30] = test: Decrease in EGFR level in human NCI-H460 cells harboring wild-type EGFR at 30 and 60 uM measured after 24 hrs by immunoblotting analysis; format: functional, cell-based
[31] = target: Epidermal growth factor receptor (Homo sapiens) (UniProt P00533); test: Inhibition of EGFR-mediated AKT phosphorylation in human NCI-H460 cells harboring wild-type EGFR at 30 and 60 uM measured after 24 hrs by immunoblotting analysis; format: cell-based
[32] = target: Epidermal growth factor receptor (Homo sapiens) (UniProt P00533); test: Inhibition of EGFR-mediated ERK phosphorylation in human NCI-H460 cells harboring wild-type EGFR at 30 and 60 uM measured after 24 hrs by immunoblotting analysis; format: cell-based
NCI-H1975 [33] = test: Effect on EGFR mRNA levels in human NCI-H1975 cells harboring EGFR-mutant at 30 uM by quantitative RT-PCR method; format: functional, cell-based
NCI-H1975 [34] = test: Induction of EGFR turnover in human NCI-H1975 cells harboring EGFR-mutant at 60 uM measured after 24 hrs in presence of proteosome inhibitor bortezomib by immunoblotting analysis; format: functional, cell-based
PC-9 [35] = test: Antiproliferative activity against human gefitinib-resistant PC9 cells harboring EGFR T790M mutant assessed as cell viability measured after 24 hrs; format: functional, cell-based
PC-9 [36] = test: Antiproliferative activity against human erlotinib-resistant PC9 cells harboring EGFR T790M mutant assessed as cell viability measured after 24 hrs; format: functional, cell-based
PC-9 [37] = test: Induction of apoptosis in human gefitinib-resistant PC9 cells harboring EGFR T790M mutant assessed as cell death at 30 and 60 uM measured after 24 hrs by Annexin-V/PI staining based analysis; format: functional
PC-9 [38] = test: Induction of apoptosis in human erlotinib-resistant PC9 cells harboring EGFR T790M mutant assessed as cell death at 30 and 60 uM measured after 24 hrs by Annexin-V/PI staining based analysis; format: functional
PC-9 [39] = test: Decrease in EGFR level in human gefitinib-resistant PC9 cells harboring EGFR T790M mutant at 30 and 60 uM measured after 24 hrs by immunoblotting analysis; format: functional, cell-based
PC-9 [40] = test: Decrease in EGFR level in human erlotinib-resistant PC9 cells harboring EGFR T790M mutant at 30 and 60 uM measured after 24 hrs by immunoblotting analysis; format: functional, cell-based
PC-9 [41] = test: Increase in cleaved caspase3 level in human gefitinib-resistant PC9 cells harboring EGFR T790M mutant at 30 and 60 uM by immunoblotting analysis; format: functional, cell-based
PC-9 [42] = test: Increase in cleaved caspase3 level in human erlotinib-resistant PC9 cells harboring EGFR T790M mutant at 30 and 60 uM by immunoblotting analysis; format: functional, cell-based
PC-9 [43] = test: Increase in PARP level in human gefitinib-resistant PC9 cells harboring EGFR T790M mutant at 30 and 60 uM by immunoblotting analysis; format: functional, cell-based
PC-9 [44] = test: Increase in PARP level in human erlotinib-resistant PC9 cells harboring EGFR T790M mutant at 30 and 60 uM by immunoblotting analysis; format: functional, cell-based
NCI-H1975 [45] = test: Induction of EGFR turnover in human NCI-H1975 cells harboring EGFR-mutant assessed as receptor half life […] at 60 uM in presence of cycloheximide by immunoblotting analysis; format: functional, cell-based

Chain of Epidermal growth factor receptor (Homo sapiens) (P00533 whole entry): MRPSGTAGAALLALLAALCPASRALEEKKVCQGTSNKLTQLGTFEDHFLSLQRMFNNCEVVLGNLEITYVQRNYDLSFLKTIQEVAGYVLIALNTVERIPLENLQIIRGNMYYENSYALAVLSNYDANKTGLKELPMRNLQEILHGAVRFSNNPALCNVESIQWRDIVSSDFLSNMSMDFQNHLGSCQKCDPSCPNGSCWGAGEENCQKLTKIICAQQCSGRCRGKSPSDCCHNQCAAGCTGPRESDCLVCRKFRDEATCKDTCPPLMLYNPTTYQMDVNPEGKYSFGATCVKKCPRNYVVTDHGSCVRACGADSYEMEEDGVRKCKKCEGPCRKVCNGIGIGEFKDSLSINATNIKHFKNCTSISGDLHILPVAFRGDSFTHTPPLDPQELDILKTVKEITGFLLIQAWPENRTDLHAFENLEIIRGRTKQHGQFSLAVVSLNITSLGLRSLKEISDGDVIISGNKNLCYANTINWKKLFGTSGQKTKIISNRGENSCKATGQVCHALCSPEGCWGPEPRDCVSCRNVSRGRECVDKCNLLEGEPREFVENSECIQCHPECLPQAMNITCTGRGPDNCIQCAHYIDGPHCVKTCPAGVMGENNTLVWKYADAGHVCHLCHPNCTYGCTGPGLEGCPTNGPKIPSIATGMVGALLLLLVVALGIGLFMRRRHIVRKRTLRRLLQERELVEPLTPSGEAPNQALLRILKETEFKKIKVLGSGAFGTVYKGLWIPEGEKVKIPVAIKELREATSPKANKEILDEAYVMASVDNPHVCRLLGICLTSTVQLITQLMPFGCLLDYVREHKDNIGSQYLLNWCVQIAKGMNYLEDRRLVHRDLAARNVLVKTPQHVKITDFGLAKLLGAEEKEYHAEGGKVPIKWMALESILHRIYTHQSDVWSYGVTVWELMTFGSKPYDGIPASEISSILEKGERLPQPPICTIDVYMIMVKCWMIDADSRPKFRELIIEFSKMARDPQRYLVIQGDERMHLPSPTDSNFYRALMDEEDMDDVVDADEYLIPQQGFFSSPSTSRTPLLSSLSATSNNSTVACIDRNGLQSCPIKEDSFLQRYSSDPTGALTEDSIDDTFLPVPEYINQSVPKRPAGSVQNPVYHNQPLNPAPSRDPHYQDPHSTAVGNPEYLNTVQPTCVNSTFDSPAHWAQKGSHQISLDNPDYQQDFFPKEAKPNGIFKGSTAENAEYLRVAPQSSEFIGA

Question: Which results are given for `O=C(O)c1cc(O)c(O)c(O)c1`?
Answer: inhibition (NCI-H1650 [1]): Active; Activity (NCI-H1975 [2]): Dose-dependent effect; Activity (NCI-H1650 [3]): Dose-dependent effect; Activity (A549 [4]): inactive; Activity (NCI-H460 [5]): inactive; Activity (NCI-H1975 [6]): Dose-dependent effect; Activity (NCI-H1650 [7]): Dose-dependent effect; Activity (A549 [8]): Active; Activity (NCI-H460 [9]): Active; Activity (NCI-H1975 [10]): Active; Activity (NCI-H1650 [11]): Active; Activity (A549 [12]): inactive; Activity (NCI-H460 [13]): inactive; Activity (NCI-H1975 [14]): Active; Activity (NCI-H1650 [15]): Active; Activity (A549 [16]): inactive; Activity (NCI-H460 [17]): inactive; Activity (NCI-H1975 [18]): inactive; Activity (NCI-H1650 [19]): inactive; Activity (NCI-H1975 [20]): Active; Activity (NCI-H1650 [21]): Active; inhibition (NCI-H1975 [22]): Dose-dependent effect; inhibition (NCI-H1975 [23]): Active; inhibition (NCI-H1975 [24]): Active; inhibition (NCI-H1650 [25]): Dose-dependent effect; inhibition (NCI-H1650 [26]): Active; inhibition (A549 [27]): inactive; inhibition [28]: inactive; inhibition [29]: inactive; inhibition (NCI-H460 [30]): inactive; inhibition [31]: inactive; inhibition [32]: inactive; Activity (NCI-H1975 [33]): inactive; Activity (NCI-H1975 [34]): inactive; Activity (PC-9 [35]): Dose-dependent effect; Activity (PC-9 [36]): Dose-dependent effect; Activity (PC-9 [37]): Active; Activity (PC-9 [38]): Active; Activity (PC-9 [39]): Active; Activity (PC-9 [40]): Active; Activity (PC-9 [41]): Active; Activity (PC-9 [42]): Active; Activity (PC-9 [43]): Active; Activity (PC-9 [44]): Active; Activity (NCI-H1975 [45]): inactive
